The text below walks through data of US10113154B2, “Method for producing steviol glycoside” (SUNTORY HOLDINGS LIMITED, priority 2012, dated 2018).

For one test, the target named is T1, UGT85C2 (Stevia rebaudiana, UniProt Q6VAB0, A65S/E71Q/K220T).
T1 construct: The ORF fragment of about 1.4 kb from UGT85C2 was excised using the restriction enzyme sites of NdeI and BglII; made in house; host or cells: Escherichia coli BL21 (DE3)
Kind of test: Assay for enzyme activity of UGT85C2 (glucosylation with UDP-glucose, LC-MS analysis). The test is classed as biochemical. The settings on record: 0.1 mM substrate, 2 mM UDP-glucose, pH 7.0, 30° C., one hour; FIG. 4 panel 1. The procedure: Standard conditions for the enzyme reaction were as follows. A reaction solution (2 mM UDP-glucose, 0.1 mM glycosyl acceptor substrate (steviol), 100 mM potassium phosphate buffer (pH 7.0) and 25 μl of purified UGT85C2 enzyme solution) was prepared in distilled water to become 50 μl, and reacted at 30° C. for an hour. The LC-MS analysis was performed for 5 μl of the enzyme reaction solution under the following conditions.
Column: Waters Sunfire C18 3.5 um 2.0 mm I.D.×20 mm
Moving phase: A: MilliQ Water (+0.05% formic acid), B: MeCN
Gradient: linear gradient of B from 15% to 55% (20 mins.)

The test system of test [1] is UGT85C2 and UGT91D-like 3. The experiment in a line: Simultaneous reaction of UGT85C2 and UGT91D-like 3 (LC-MS analysis). It is filed as biochemical, stevia. The settings on record: FIG. 4 panel 3.
Test [2] deals with T2, UGT85C2 and UGT91D-like 3 (Stevia rebaudiana, UniProt Q6VAB0, A65S/E71Q/K220T).
T2 construct: The ORF fragment of about 1.4 kb from UGT85C2 was excised using the restriction enzyme sites of NdeI and BglII; made in house; host or cells: Escherichia coli BL21 (DE3), stated for UGT85C2 only
T2 sequence (Q6VAB0 whole entry A65S/E71Q/K220T, the tested form may be a part): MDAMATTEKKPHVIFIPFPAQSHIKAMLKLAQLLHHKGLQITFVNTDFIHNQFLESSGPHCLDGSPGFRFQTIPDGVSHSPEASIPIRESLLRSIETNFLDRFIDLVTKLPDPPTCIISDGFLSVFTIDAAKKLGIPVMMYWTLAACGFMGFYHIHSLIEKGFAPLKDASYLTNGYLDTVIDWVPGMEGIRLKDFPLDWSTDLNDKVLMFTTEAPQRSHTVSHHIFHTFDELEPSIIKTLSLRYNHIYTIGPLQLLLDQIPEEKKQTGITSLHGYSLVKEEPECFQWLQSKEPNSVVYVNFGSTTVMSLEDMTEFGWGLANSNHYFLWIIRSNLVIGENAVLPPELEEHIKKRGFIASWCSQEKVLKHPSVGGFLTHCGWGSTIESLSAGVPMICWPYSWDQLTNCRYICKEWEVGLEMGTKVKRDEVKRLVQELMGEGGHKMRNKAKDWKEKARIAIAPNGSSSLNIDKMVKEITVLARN
The description is as above. It is filed as biochemical. The settings on record: concluded from simultaneous reaction, FIG. 4 panel 3.

T1 sequence (Q6VAB0 whole entry A65S/E71Q/K220T, the tested form may be a part): as above

For `C=C1C[C@@]23CC[C@H]4[C@@](C)(CCC[C@@]4(C)C(=O)O)[C@@H]2CC[C@]1(O)C3` [steviol], at UGT85C2, the “glucosylation of the carboxyl at C19-position by UGT85C2, product additionally formed” value is on record as “rubusoside (FIG. 4: panel 1: peak D) with the carboxyl at C19-position being glucosylated was additionally formed” and the “glucosylation of the hydroxyl at C-13 position by UGT85C2, product formed” value is listed as “glucosylated (FIG. 4, panel 1: peak A) to form steviolmonoside”. In test [1], the “products formed by simultaneous reaction of UGT85C2 and UGT91D-like 3” value is “steviolbioside (FIG. 4: panel 3: peak C) and stevioside (FIG. 4: panel 3: peak E) were formed”.

Consider `C=C1C[C@@]23CC[C@H]4[C@@](C)(CCC[C@@]4(C)C(=O)O)[C@@H]2CC[C@]1(O[C@@H]1O[C@H](CO)[C@@H](O)[C@H](O)[C@H]1O[C@@H]1O[C@H](CO)[C@@H](O)[C@H](O)[C@H]1O)C3` [steviolbioside], for which the “glucosylation of the carboxyl at C19-position by UGT85C2 protein” value in test [2] was “glucosylates the carboxyl at C19-position of steviolbioside”.
